Reference: patent publication US20070253957A1, “Substituted N-Aryl-1H-Pyrazolo[3,4-B]Quinolin-4-Amines and Analogs as Activators of Caspases and Inducers of Apoptosis” (Cytovia, Inc., priority 2004, published 2007)

Tested on: T-47D
Assay: Caspase cascade activation assay (N-(Ac-DEVD)-N'-ethoxycarbonyl-R110 fluorogenic substrate) in T-47D cells
Type: cell-based, Human
Details: 24 h incubation; for Caspase Activity Ratio: ratio of net RFU (T=3 h) to that of control samples, 0.16 to 10 μM final; for EC50: Homo sapiens, T47D, sigmoidal dose-response calculation, read-out: Caspase Potency EC50
Procedure: Human breast cancer cell lines T-47D was grown according to media component mixtures designated by American Type Culture Collection+10% FCS (mvitrogen Corporation), in a 5% CO2-95% humidity incubator at 37° C. T-47D and ZR-75-1 cells were maintained at a cell density between 30 and 80% confluency and for HL-60 at a cell density of 0.1 to 0.6×10^6 cells/mL. Cells were harvested at 600×g and resuspended at 0.65×10^6 cells/mL into appropriate media+10% FCS. An aliquot of 45 μL of cells was added to a well of a 96-well microtiter plate containing 5 μL of a 10% DMSO in RPMI-1640 media solution containing 1.6 to 100 μM of 1,3-dimethyl-N-(4-methoxyphenyl)-1H-pyrazolo[3,4-b]quinolin-4-amine or other test compound (0.16 to 10 μM final). An aliquot of 45 μL of cells was added to a well of a 96-well microtiter plate containing 5 μL of a 10% DMSO in RPMI-1640 media solution without test compound as the control sample. The samples were mixed by agitation and then incubated at 37° C. for 24 h in a 5% CO2-95% humidity incubator. After incubation, the samples were removed from the incubator and 50 μL of a solution containing 20 μM of N-(Ac-DEVD)-N′-ethoxycarbonyl-R110 fluorogenic substrate (SEQ ID NO:1) (Cytovia, Inc.; U.S. Pat. No. 6,335,429), 20% sucrose (Sigma), 20 mM DTT (Sigma), 200 mM NaCl (Sigma), 40 mM Na PIPES buffer pH 7.2 (Sigma), and 500 μg/mL lysolecithin (Calbiochem) was added. The samples were mixed by agitation and incubated at room temperature. Using a fluorescent plate reader (Model 1420 Wallac Instruments), an initial reading (T=0) was made about 1-2 min after addition of the substrate solution, employing excitation at 485 nm and emission at 530 nm, to determine the background fluorescence of the control sample. After about 3 h of incubation, the samples were read for fluorescence as above (T=3 h).
The Relative Fluorescence Unit values (RFU) were used to calculate the sample readings as follows: RFU(T=3h)−Control RFU(T=0)=Net RFU(T=3h)
The activity of caspase cascade activation was determined by the ratio of the net RFU value for 1,3-dimethyl-N-(4-methoxyphenyl)-1H-pyrazolo[3,4-b]quinolin-4-amine to that of control samples. The EC50 (nM) was determined by a sigmoidal dose-response calculation (Prism 2.0, GraphPad Software Inc.).

SMILES | EC50 | Caspase Activity Ratio
CC(=O)c1cccc(Nc2c3ccccc3nc3c2c(C)nn3C)c1 [Example 5, N-(3-Acetylphenyl)-1,3-dimethyl-1H-pyrazolo[3,4-b]quinolin-4-amine] | > 10 µM | 1.0
COc1cccc(Nc2c3ccccc3nc3c2c(C)nn3C)c1 [Example 8, 1,3-Dimethyl-N-(3-methoxyphenyl)-1H-pyrazolo[3,4-b]quinolin-4-amine] | 5.83 µM | 3.9
COc1ccc(Sc2c3ccccc3nc3c2c(C)nn3C)cc1 [Example 12, 4-(4-Methoxyphenylthio)-1,3-dimethyl-1H-pyrazolo[3,4-b]quinoline] | 4.23 µM | 9.3
CC(=O)c1ccc(Oc2c3ccccc3nc3c2c(C)nn3C)cc1 [Example 13, 4-(4-Acetylphenoxy)-1,3-dimethyl-1H-pyrazolo[3,4-b]quinoline] | 4.32 µM | 7.5
CC(C)C(=O)c1cccc(N(C)c2c3c(nc4ccccc24)CCC3)c1 [Example 16, N-(3-Isobutyrylphenyl)-N-methyl-2,3-dihydro-1H-cyclopenta[b]quinolin-9-amine] | > 10 µM | 1.1
CC(=O)c1ccc(Nc2c3ccccc3nc3c2cnn3C)cc1 [Example 18, N-(4-Acetylphenyl)-1-methyl-1H-pyrazolo[3,4-b]quinolin-4-amine] | 0.841 µM | 8.5
Cc1nn(C)c2nc3ccccc3c(Nc3ccc(C(=O)C(C)C)cc3)c12 [Example 44, N-(4-Isobutyrylphenyl)-1,3-dimethyl-1H-pyrazolo[3,4-b]quinolin-4-amine] | 0.248 µM | 4.3
Cc1nn(C)c2nc3ccccc3c(Nc3ccc(N)cc3)c12.Cl [Example 45, N-(4-Aminophenyl)-1,3-dimethyl-1H-pyrazolo[3,4-b]quinolin-4-amine hydrochloride] | > 10 µM | 1.1
Cc1nn(C)c2nc3ccccc3c(Nc3ccc(N=[N+]=[N-])cc3)c12 [Example 46, N-(4-Azidophenyl)-1,3-dimethyl-1H-pyrazolo[3,4-b]quinolin-4-amine] | > 10 µM | 1.1
Cc1nn(C)c2nc3ccccc3c(Nc3ccc(C(=O)C(F)(F)F)cc3)c12 [Example 48, 1,3-Dimethyl-N-(4-(2,2,2-trifluoroacetyl)phenyl)-1H-pyrazolo[3,4-b]quinolin-4-amine] | > 10 µM | 1.1
CCc1ccccc1Nc1c2c(nc3ccccc13)CCC2 [N-(2-Ethylphenyl)-2,3-dihydro-1H-cyclopenta[b]quinolin-9-amine] | 2.96 µM | 6.5
COC(=O)c1cccc(Nc2c3c(nc4ccccc24)CCC3)c1 [N-(3-(Methoxycarbonyl)phenyl)-2,3-dihydro-1H-cyclopenta[b]quinolin-9-amine] | 3.04 µM | 5.6
CC(=O)c1cccc(Nc2c3c(nc4ccccc24)CCC3)c1 [N-(3-Acetylphenyl)-2,3-dihydro-1H-cyclopenta[b]quinolin-9-amine] | 0.304 µM | 8.8
Cc1ccc2nc3c(c(Nc4cccc(O)c4)c2c1)CCC3 [N-(3-Hydroxyphenyl)-7-methyl-2,3-dihydro-1H-cyclopenta[b]quinolin-9-amine] | 5.53 µM | 3.7
CCOC(=O)c1ccc(Nc2c3c(nc4ccccc24)CCC3)cc1 [N-(4-(Ethoxycarbonyl)phenyl)-2,3-dihydro-1H-cyclopenta[b]quinolin-9-amine] | 1.18 µM | 9.5
COC(=O)c1ccc(Nc2c3c(nc4ccccc24)CCC3)cc1 [N-(4-(Methoxycarbonyl)phenyl)-2,3-dihydro-1H-cyclopenta[b]quinolin-9-amine] | 0.34 µM | 4.8

Continued, in another order:

EC50 | SMILES | Caspase Activity Ratio
> 10 µM | Cc1nn(C)c2nc3ccccc3c(Nc3ccc(C(N)=O)cc3)c12 [Example 6, N-(4-Carbamoylphenyl)-1,3-dimethyl-1H-pyrazolo[3,4-b]quinolin-4-amine] | 1.0
> 10 µM | COc1ccc(Nc2c3ccccc3nc3c2c(C)nn3C)cn1 [Example 7, 1,3-Dimethyl-N-(6-methoxypyridin-3-yl)-1H-pyrazolo[3,4-b]quinolin-4-amine] | 1.0
5.12 µM | CCOC(=O)c1ccc(N(C)c2c3c(nc4ccccc24)CCC3)cc1 [Example 17, N-(4-(Ethoxycarbonyl)phenyl)-N-methyl-2,3-dihydro-1H-cyclopenta[b]quinolin-9-amine] | 9.3
> 10 µM | CC(=O)c1ccc(Nc2c3ccccc3nc3c2c(C(C)C)nn3C)cc1 [Example 21, N-(4-Acetylphenyl)-1-methyl-3-isopropyl-1H-pyrazolo[3,4-b]quinolin-4-amine] | 1.1
> 10 µM | CCc1ccc(Nc2c3ccccc3nc3c2c(C)nn3C)cc1 [Example 22, N-(4-Ethylphenyl)-1,3-dimethyl-1H-pyrazolo[3,4-b]quinolin-4-amine] | 1.1
> 10 µM | CC(=O)Nc1ccc(Nc2c3ccccc3nc3c2c(C)nn3C)cc1 [Example 32, N-(4-Acetamidophenyl)-1,3-dimethyl-1H-pyrazolo[3,4-b]quinolin-4-amine] | 1.1
> 10 µM | Cc1nn(C)c2nc3ccccc3c(Nc3ccc(S(C)(=O)=O)cc3)c12 [Example 34, 1,3-Dimethyl-N-(4-methylsulfonylphenyl)-1H-pyrazolo[3,4-b]quinolin-4-amine] | 1.1
> 10 µM | Cc1nn(C)c2nc3ccccc3c(Nc3ccc([S+](C)[O-])cc3)c12 (stereo not drawn) [Example 39, 1,3-Dimethyl-N-(4-methylsulfinylphenyl)-1H-pyrazolo[3,4-b]quinolin-4-amine] | 1.1
> 10 µM | Cc1nn(C)c2nc3ccccc3c(Nc3ccc(C(=O)O)cc3)c12 [Example 47, N-(4-Carboxylphenyl)-1,3-dimethyl-1H-pyrazolo[3,4-b]quinolin-4-amine] | 1.1
2.45 µM | COc1ccccc1Nc1c2c(nc3ccccc13)CCC2 [N-(2-Methoxyphenyl)-2,3-dihydro-1H-cyclopenta[b]quinolin-9-amine] | 7.5
0.314 µM | CC(=O)c1ccc(Nc2c3ccccc3nc3c2c(C)nn3C)cc1 [N-(4-Acetylphenyl)-1,3-dimethyl-1H-pyrazolo[3,4-b]quinolin-4-amine] | 4.2
